In US10266526B2, “Substituted 1,2,3-triazoles as SMYD inhibitors for treating cancer” (EPIZYME, INC., priority 2014, dated 2019):

Biological target: SMYD3 (Homo sapiens (Human), UniProt Q9H7B4)
Assay: SMYD3 biochemical assay (SMYD3 enzyme assay on MEKK2 protein substrate, 3H-SAM scintillation proximity assay)
Conditions: read-out: SMYD3 Biochem IC50
Summary of the method: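 Native full-length human SMYD3, expressed in E. coli, was preincubated with compound for 30 min at room temperature in 25 mM Tris-Cl pH 8.0, 1 mM TCEP, 0.005% BSG and 0.005% Tween 20. ³H-SAM plus GST-MEKK2 then started the reaction. It was stopped with unlabeled SAM (100 uM final), and methylated MEKK2 was read by SPA.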

SMYD3, sequence (Q9H7B4 whole entry): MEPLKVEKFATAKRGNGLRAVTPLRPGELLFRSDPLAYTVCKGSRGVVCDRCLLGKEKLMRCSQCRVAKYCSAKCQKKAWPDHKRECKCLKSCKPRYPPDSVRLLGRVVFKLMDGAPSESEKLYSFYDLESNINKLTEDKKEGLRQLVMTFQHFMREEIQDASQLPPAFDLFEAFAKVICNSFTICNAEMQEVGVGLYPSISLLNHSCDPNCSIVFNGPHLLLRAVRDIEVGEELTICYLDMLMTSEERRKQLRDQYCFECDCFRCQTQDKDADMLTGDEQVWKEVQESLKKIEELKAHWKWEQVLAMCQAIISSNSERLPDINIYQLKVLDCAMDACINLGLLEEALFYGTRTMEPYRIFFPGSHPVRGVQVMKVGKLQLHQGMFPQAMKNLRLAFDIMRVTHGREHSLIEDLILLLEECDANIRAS

SMILES	IC50 [µM]
COc1cncc(C(=O)N[C@H]2CC[C@H](NC(=O)CCN)CC2)n1 [compound 355, N-((1r,4r)-4-(3-aminopropanamido)cyclohexyl)-6-methoxypyrazine-2-carboxamide]	> 100
COc1cncc(C(=O)N[C@H]2CC[C@H](N)CC2)n1 [compound 356, N-((1r,4r)-4-aminocyclohexyl)-6-methoxypyrazine-2-carboxamide]	> 100
CC(NC(=O)c1ccc(N)cn1)C1CCN(C(=O)[C@H](C)N)CC1 (stereo partly drawn) [compound 357, N-(1-(1-(L-alanyl)piperidin-4-yl)ethyl)-5-aminopicolinamide]	> 100
N[C@H]1CC[C@H](NC(=O)c2ccc(Cl)cc2C(F)(F)F)CC1 [compound 358, N-((1r,4r)-4-aminocyclohexyl)-4-chloro-2-(trifluoromethyl)benzamide]	> 100
N[C@H]1CC[C@H](NC(=O)c2cncs2)CC1 [compound 359, N-((1r,4r)-4-aminocyclohexyl)thiazole-5-carboxamide]	> 100
N[C@H]1CC[C@H](NC(=O)c2c[nH]c3ccccc23)CC1 [compound 360, N-((1r,4r)-4-aminocyclohexyl)-1H-indole-3-carboxamide]	> 100
NCCC(=O)N[C@H]1CC[C@H](NC(=O)c2ccc(O)cn2)CC1 [compound 361, N-((1r,4r)-4-(3-aminopropanamido)cyclohexyl)-5-hydroxypicolinamide]	> 100
N[C@H]1CC[C@H](NC(=O)Cc2cc(F)cc(F)c2)CC1 [compound 362, N-((1r,4r)-4-aminocyclohexyl)-2-(3,5-difluorophenyl)acetamide]	> 100
NCCC(=O)N[C@H]1CC[C@H](NC(=O)Cc2cccnc2)CC1 [compound 363, 3-amino-N-((1r,4r)-4-(2-(pyridin-3-yl)acetamido)cyclohexyl)propanamide]	> 100
NCCC(=O)N[C@H]1CC[C@H](NC(=O)Cc2cncnc2)CC1 [compound 364, 3-amino-N-((1r,4r)-4-(2-(pyrimidin-5-yl)acetamido)cyclohexyl)propanamide]	> 100
N[C@H]1CC[C@H](NC(=O)Cc2cncnc2)CC1 [compound 365, N-((1r,4r)-4-aminocyclohexyl)-2-(pyrimidin-5-yl)acetamide]	> 100
NCCC(=O)N[C@H]1CC[C@H](NC(=O)Cn2ccnc2)CC1 [compound 366, N-((1r,4r)-4-(2-(1H-imidazol-1-yl)acetamido)cyclohexyl)-3-aminopropanamide]	> 100
N[C@H]1CC[C@H](NC(=O)c2nc3ccccc3s2)CC1 [compound 367, N-((1r,4r)-4-aminocyclohexyl)benzo[d]thiazole-2-carboxamide]	> 100
CC(NC(=O)c1ccc2cc[nH]c2c1)C1CCN(C(=O)[C@H](C)N)CC1 (stereo partly drawn) [compound 368, N-(1-(1-(L-alanyl)piperidin-4-yl)ethyl)-1H-indole-6-carboxamide]	12.3
COc1cccc2[nH]cc(C(=O)NC(C)C3CCN(C(=O)[C@H](C)N)CC3)c12 (stereo partly drawn) [compound 370, N-(1-(1-(L-alanyl)piperidin-4-yl)ethyl)-4-methoxy-1H-indole-3-carboxamide]	> 100
COc1cccc2[nH]cc(C(=O)N[C@H]3CC[C@H](NC(=O)CCN)CC3)c12 [compound 371, N-((1r,4r)-4-(3-aminopropanamido)cyclohexyl)-4-methoxy-1H-indole-3-carboxamide]	> 100
COc1cccc2[nH]cc(C(=O)N[C@H]3CC[C@H](N)CC3)c12 [compound 372, N-((1r,4r)-4-aminocyclohexyl)-4-methoxy-1H-indole-3-carboxamide]	> 100
NCCC(=O)N[C@H]1CC[C@H](NC(=O)c2cnc3ccccc3n2)CC1 [compound 373, N-((1r,4r)-4-(3-aminopropanamido)cyclohexyl)quinoxaline-2-carboxamide]	> 100
NCCC(=O)N[C@H]1CC[C@H](NC(=O)c2nc3ccccc3[nH]2)CC1 [compound 374, N-((1r,4r)-4-(3-aminopropanamido)cyclohexyl)-1H-benzo[d]imidazole-2-carboxamide]	86.6

The remaining lines, values ahead:

IC50 [µM]	SMILES
> 100	NCCC(=O)N[C@H]1CC[C@H](NC(=O)CCCn2ccnc2)CC1 [compound 375, N-((1r,4r)-4-(3-aminopropanamido)cyclohexyl)-4-(1H-imidazol-1-yl)butanamide]
> 100	NCCC(=O)N[C@H]1CC[C@H](NC(=O)c2ccnc(O)c2)CC1 [compound 376, N-((1r,4r)-4-(3-aminopropanamido)cyclohexyl)-2-hydroxyisonicotinamide]
> 100	CC(NC(=O)c1ccc(O)nc1)C1CCN(C(=O)[C@H](C)N)CC1 (stereo partly drawn) [compound 378, N-(1-(1-(L-alanyl)piperidin-4-yl)ethyl)-6-hydroxynicotinamide]
> 100	Cc1cnccc1C(=O)N[C@H]1CC[C@H](NC(=O)CCN)CC1 [compound 379, N-((1r,4r)-4-(3-aminopropanamido)cyclohexyl)-3-methylisonicotinamide]
> 100	Cc1cnccc1C(=O)N[C@H]1CC[C@H](N)CC1 [compound 380, N-((1r,4r)-4-aminocyclohexyl)-3-methylisonicotinamide]
> 100	Cc1ccncc1C(=O)N[C@H]1CC[C@H](NC(=O)CCN)CC1 [compound 381, N-((1r,4r)-4-(3-aminopropanamido)cyclohexyl)-4-methylnicotinamide]
> 100	Cc1ccc(C(=O)N[C@H]2CC[C@H](NC(=O)CCN)CC2)cn1 [compound 382, N-((1r,4r)-4-(3-aminopropanamido)cyclohexyl)-6-methylnicotinamide]
> 100	COc1cnc(C(=O)N[C@H]2CC[C@H](NC(=O)CCN)CC2)cn1 [compound 383, N-((1r,4r)-4-(3-aminopropanamido)cyclohexyl)-5-methoxypyrazine-2-carboxamide]
> 100	COc1cnc(C(=O)N[C@H]2CC[C@H](N)CC2)cn1 [compound 384, N-((1r,4r)-4-aminocyclohexyl)-5-methoxypyrazine-2-carboxamide]
> 100	NCCC(=O)N[C@H]1CC[C@H](NC(=O)c2cccc(N)n2)CC1 [compound 385, 6-amino-N-((1r,4r)-4-(3-aminopropanamido)cyclohexyl)picolinamide]
> 100	Nc1cccc(C(=O)N[C@H]2CC[C@H](N)CC2)n1 [compound 386, 6-amino-N-((1r,4r)-4-aminocyclohexyl)picolinamide]
> 100	CC(NC(=O)c1ccc(N)nc1)C1CCN(C(=O)[C@H](C)N)CC1 (stereo partly drawn) [compound 387, N-(1-(1-(L-alanyl)piperidin-4-yl)ethyl)-6-aminonicotinamide]
> 100	NCCC(=O)N[C@H]1CC[C@H](NC(=O)c2ccc(N)nc2)CC1 [compound 388, 6-amino-N-((1r,4r)-4-(3-aminopropanamido)cyclohexyl)nicotinamide]
> 100	N[C@H]1CC[C@H](NC(=O)c2cccc(F)n2)CC1 [compound 389, N-((1r,4r)-4-aminocyclohexyl)-6-fluoropicolinamide]
> 100	NCCC(=O)N[C@H]1CC[C@H](NC(=O)c2ccncc2F)CC1 [compound 390, N-((1r,4r)-4-(3-aminopropanamido)cyclohexyl)-3-fluoroisonicotinamide]
> 100	NCCC(=O)N[C@H]1CC[C@H](NC(=O)c2c[nH]c3ccccc23)CC1 [compound 391, N-((1r,4r)-4-(3-aminopropanamido)cyclohexyl)-1H-indole-3-carboxamide]
> 100	Cc1cc(C(=O)NC(C)C2CCN(C(=O)[C@H](C)N)CC2)ccn1 (stereo partly drawn) [compound 392, N-(1-(1-(L-alanyl)piperidin-4-yl)ethyl)-2-methylisonicotinamide]
> 100	Cc1cc(C(=O)N[C@H]2CC[C@H](NC(=O)CCN)CC2)ccn1 [compound 393, N-((1r,4r)-4-(3-aminopropanamido)cyclohexyl)-2-methylisonicotinamide]
> 100	Cc1cc(C(=O)N[C@H]2CC[C@H](N)CC2)ccn1 [compound 394, N-((1r,4r)-4-aminocyclohexyl)-2-methylisonicotinamide]
> 100	CC(NC(=O)c1nc2ccccc2s1)C1CCN(C(=O)[C@H](C)N)CC1 (stereo partly drawn) [compound 395, N-(1-(1-(L-alanyl)piperidin-4-yl)ethyl)benzo[d]thiazole-2-carboxamide]
10.6	Cc1cnc(C(=O)NC(C)C2CCN(C(=O)[C@H](C)N)CC2)s1 (stereo partly drawn) [compound 396, N-(1-(1-(L-alanyl)piperidin-4-yl)ethyl)-5-methylthiazole-2-carboxamide]
27.4	Cc1cnc(C(=O)N[C@H]2CC[C@H](NC(=O)CCN)CC2)s1 [compound 397, N-((1r,4r)-4-(3-aminopropanamido)cyclohexyl)-5-methylthiazole-2-carboxamide]
> 100	Cc1cnc(C(=O)N[C@H]2CC[C@H](N)CC2)s1 [compound 398, N-((1r,4r)-4-aminocyclohexyl)-5-methylthiazole-2-carboxamide]
> 100	CC(NC(=O)c1cccc2c1CC(=O)N2)C1CCN(C(=O)[C@H](C)N)CC1 (stereo partly drawn) [compound 399, N-(1-(1-(L-alanyl)piperidin-4-yl)ethyl)-2-oxoindoline-4-carboxamide]
> 100	N[C@H]1CC[C@H](NC(=O)c2cccc3c2CC(=O)N3)CC1 [compound 400, N-((1r,4r)-4-aminocyclohexyl)-2-oxoindoline-4-carboxamide]
> 100	Cc1c(C(=O)N[C@H]2CC[C@H](NC(=O)CCN)CC2)nnn1-c1ccccc1 [compound 401, N-((1r,4r)-4-(3-aminopropanamido)cyclohexyl)-5-methyl-1-phenyl-1H-1,2,3-triazole-4-carboxamide]
> 100	Cc1cc(C)c(C(=O)N[C@H]2CC[C@H](NC(=O)CCN)CC2)c(=O)[nH]1 [compound 402, N-((1r,4r)-4-(3-aminopropanamido)cyclohexyl)-4,6-dimethyl-2-oxo-1,2-dihydropyridine-3-carboxamide]
